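A five-concentration, 48-hour dose response in 96-well plates underlies each endpoint, interpolated linearly between surrounding concentrations. GI50 = concentration required for 50% inhibition of growth.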 Active and inactive are the calls of the source. No stated cut-off is given here; in the data, active = GI50 up to about 1.1 µM and inactive = higher. Bounds are passed on as bounds.

Test systems include HCT-15; K562; 786-0; EKVX; SK-OV-3; SK-MEL-2; NCI-H23; HCC 2998; DLD-1; A549; IGROV-1; SK-MEL-28; HOP-92; UACC-257; OVCAR-4; MDA-MB-435; PC-3; Hs-578T; MDA-MB-231; T47D.
Test in all cases: NCI tumour cell line growth inhibition, 48 h

With `O=C1N[C@@H](O)[C@@H]2ON=C(c3ccccc3)[C@H]12`, the GI50 was greater than 100 µM in the assay with HCT-15; > 100 µM (inactive) with K562; > 100 µM (inactive) in the assay with 786-0; > 100 µM (inactive) in the assay with EKVX; > 100 µM (inactive) with SK-OV-3; > 100 µM (inactive) in the assay with SK-MEL-2. For the same compound, the GI50 in the assay with NCI-H23, in the assay on HCC 2998, in the assay with DLD-1, in the assay with A549, with IGROV-1 and in the assay on SK-MEL-28 was > 100 µM (inactive) throughout. In addition, the GI50 with HOP-92, in the assay on UACC-257 and in the assay with OVCAR-4 was > 100 µM (inactive) each time.

For the compound `COC(=O)C1=C(C)N(NC(N)=O)C2(N)N(NC(N)=O)C(C)=C(C(=O)OC)C12C(=O)OC` (stereo not given), the GI50 is greater than 100 µM in the assay with HCT-15; > 100 µM (inactive) in the assay with K562; > 100 µM (inactive) in the assay on 786-0; > 100 µM (inactive) with EKVX; > 100 µM (inactive) in the assay on SK-OV-3; > 100 µM (inactive) in the assay with SK-MEL-2. Moreover, the GI50 in the assay with NCI-H23, in the assay with HCC 2998, with DLD-1, in the assay on A549, in the assay with IGROV-1 and in the assay on SK-MEL-28 was > 100 µM (inactive) throughout. Further, the GI50 with HOP-92, with UACC-257 and in the assay on OVCAR-4 was > 100 µM (inactive) each time.

For `CCCCN(Cc1ccccc1)/C(=N/C#N)N(Cc1ccccc1)Cc1ccccc1`, the GI50 in the assay on HCT-15 is 14.4 µM; in the assay on K562 it was 14 µM (inactive); with MDA-MB-435, 15.7 µM (inactive); in the assay on PC-3, 6.71 µM (inactive); in the assay on 786-0 it was 17.1 µM (inactive); in the assay with EKVX, 31.3 µM (inactive). Besides, the GI50 is 23.4 µM (inactive) in the assay on Hs-578T; 30.2 µM (inactive) in the assay with SK-OV-3; 13.1 µM (inactive) in the assay on SK-MEL-2; 11.3 µM (inactive) with NCI-H23; 26.5 µM (inactive) with HCC 2998; 24.9 µM (inactive) with DLD-1. Besides, the GI50 in the assay with A549 was 13.4 µM (inactive); with IGROV-1 it was 17.6 µM (inactive); in the assay on SK-MEL-28 it was 29 µM (inactive); with MDA-MB-231 it was 18.7 µM (inactive); in the assay on HOP-92 it was 11.4 µM (inactive); in the assay on T47D, 15.8 µM (inactive). Further, the results for the GI50 with UACC-257 and in the assay on OVCAR-4 were 10.6 µM (inactive) and 15.8 µM (inactive), respectively.

As to `Cc1ccc(C2(O)CC(c3ccc([N+](=O)[O-])o3)=NN2C(=O)COc2ccc(Cl)cc2)cc1` (stereo not given), the GI50 is 3.1 µM with HCT-15; 4.07 µM (inactive) in the assay on K562; 4.45 µM (inactive) in the assay on 786-0; 6.3 µM (inactive) in the assay on EKVX; 15.3 µM (inactive) in the assay with SK-OV-3; 4.44 µM (inactive) with SK-MEL-2. Also, the GI50 is 5.2 µM (inactive) in the assay on NCI-H23; 6 µM (inactive) in the assay with HCC 2998; 3.23 µM (inactive) in the assay on DLD-1; 7.29 µM (inactive) in the assay on A549; 11.4 µM (inactive) in the assay on IGROV-1; 9.77 µM (inactive) in the assay with SK-MEL-28. For the same compound, the results for the GI50 in the assay on HOP-92, in the assay with UACC-257 and with OVCAR-4 were 7.93 µM (inactive), 4.91 µM (inactive) and 5.98 µM (inactive), respectively.

Values taken from ChEMBL document CHEMBL1201862, “PubChem BioAssay data set” (2004).
